Measurements: patent publication EP4603105A1, “PHARMACEUTICAL COMPOSITION CONTAINING CYCLIC COMPOUND HAVING SELECTIVE KRAS INHIBITORY EFFECT AGAINST HRAS AND NRAS” (CHUGAI SEIYAKU KABUSHIKI KAISHA, priority 2022, dated 2024)
Read-outs that look alike come from different tables or passages of the source. *1 amine or outer side, *2 acyl side, *3 side chain or, on linkers, in order; H or OH if unused. Where a SMILES comes first, the peptide text is derived from it. Bridges are numbered along the chain shown (N, C = ends). [ ]: non-standard residue; d: D form. The star is where a group is joined. hPhe(3-Cl-4-CF3) = N[C@@H](CCc1ccc(C(F)(F)F)c(Cl)c1)C(=O)O; NPrPhe(4-CF3) = CCCN[C@@H](Cc1ccc(C(F)(F)F)cc1)C(=O)O; X35 = CCCN([C@@H](CC(C)C)C(=O)[*:2])[*:1]; NMeGly(cPent) = CN[C@H](C(=O)O)C1CCCC1; Hyp = O=C(O)[C@@H]1C[C@@H](O)CN1; NMeD = CN[C@@H](CC(=O)O)C(=O)O; NMeL = CN[C@@H](CC(C)C)C(=O)O; Morpholide = C1CN(*)CCO1; Ac5c = NC1(C(=O)O)CCCC1; Aze = O=C(O)[C@@H]1CCN1; Ac4c = NC1(C(=O)O)CCC1; Sar = CNCC(=O)O

How the values were obtained:
HRAS wild-type protein = HRAS wild-type protein (Homo sapiens, UniProt P01112); assay: Binding to HRAS by surface plasmon resonance (SPR), KD and KD ratio to KRAS
In short: (§1)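 Compound binding is evaluated by SPR single-cycle kinetics, with concentrations added intermittently from low to high for 75 s each. Target surfaces carry GDP-loaded biotinylated Avi-RAS at about 100–300 RU, regenerated after each cycle; temperature 30°C. A 1:1 binding model gives KD.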

[1] = target: GDP-bound NRAS wild-type protein (Homo sapiens, UniProt P01111); assay: Binding to NRAS by surface plasmon resonance (SPR), KD and KD ratio to KRAS
In short: as §1

[2] = system: human lung cancer strain NCI-H441; assay type: cell-based
In short: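 Proliferation was scored by […] measured after the reagent was added to cultures kept at 37°C in 5% carbon dioxide.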

[3] = ratio of KD value for HRAS wild-type protein to KD value for KRAS (SPR)
[4] = ratio of KD value for GDP-bound NRAS wild-type protein to KD value for KRAS (SPR)
[5] = ratio of the KD value with respect to HRAS wild-type protein to the KD value with respect to KRAS
[6] = ratio of the KD value with respect to GDP-bound NRAS wild-type protein to the KD value with respect to KRAS
[7] = ratio of KD for HRAS wild-type protein to KD for KRAS
[8] = ratio of KD for GDP-bound NRAS wild-type protein to KD for KRAS

HRAS wild-type protein, sequence (P01112 whole entry): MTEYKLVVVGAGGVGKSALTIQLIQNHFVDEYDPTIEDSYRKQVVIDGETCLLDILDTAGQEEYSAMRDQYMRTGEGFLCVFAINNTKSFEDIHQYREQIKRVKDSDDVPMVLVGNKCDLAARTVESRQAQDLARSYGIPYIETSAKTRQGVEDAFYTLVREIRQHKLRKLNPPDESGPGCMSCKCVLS
GDP-bound NRAS wild-type protein, sequence (P01111 whole entry): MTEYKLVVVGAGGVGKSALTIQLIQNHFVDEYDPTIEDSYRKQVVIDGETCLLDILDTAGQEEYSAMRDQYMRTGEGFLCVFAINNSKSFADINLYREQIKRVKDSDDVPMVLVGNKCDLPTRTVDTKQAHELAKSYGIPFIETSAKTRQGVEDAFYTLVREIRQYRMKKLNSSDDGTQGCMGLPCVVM

IC50 [2]	SMILES	HRAS /KRAS (HRAS wild-type protein; [3])	NRAS /KRAS [1, 4]	HRAS /KRAS (HRAS wild-type protein; [5])	NRAS /KRAS [1, 6]	HRAS /KRAS (HRAS wild-type protein; [7])	NRAS /KRAS [1, 8]	IC50 ([2]; NCI-H441 cells, 4 days, CellTiter-Glo, read-out: NCl-H441 IC50)
0.0077 µM	CC[C@H](C)[C@@H]1NC(=O)[C@H](CC2CCC2)N(C)C(=O)C[C@@H](C(=O)N(C)C)N(C)C(=O)[C@H](C2CCCC2)N(C)C(=O)C2(CC(C)(C)C2)NC(=O)[C@@H]2C[C@H](C)CN2C(=O)[C@H](CCc2cc(F)c(C(F)(F)F)c(F)c2)NC(=O)CN(C)C(=O)[C@H](Cc2ccc(C(F)(F)F)cc2)N2CC/C=C\C[C@@H](C2=O)N(C)C(=O)CN(C)C1=O [PP1684]	A (a compound having 10 or more and less than 20 is denoted as A)	A (a compound having 10 or more and less than 20 is denoted as A)					
0.0248 µM	CC[C@H](C)[C@@H]1NC(=O)[C@H](CC(C)C)N(C)C(=O)C[C@@H](C(=O)N2CCOCC2)N(C)C(=O)[C@H](C2CCCC2)N(C)C(=O)C2(CCCC2)NC(=O)[C@H](C)N(CC)C(=O)[C@H](CCc2cc(F)c(C(F)(F)F)c(F)c2)NC(=O)CN(C)C(=O)[C@H](Cc2ccc(C(F)(F)F)cc2)N2CCCC[C@@H](C2=O)N(C)C(=O)CN(C)C1=O [PP0589]			B (a compound having 3 or more and less than 10 is denoted as B)	B (a compound having 3 or more and less than 10 is denoted as B)			
0.0267 µM	CCO[C@@H]1C[C@H]2C(=O)NC3(CC(C)(C)C3)C(=O)N(C)[C@@H](C(CC)CC)C(=O)N(C)[C@H](C(=O)N(C)C)CC(=O)N(C)[C@@H](CC)C(=O)N[C@@H]([C@@H](C)CC)C(=O)N(C)CC(=O)N(C)[C@H]3C/C=C\CCN(C3=O)[C@@H](Cc3ccc(C)cc3)C(=O)N(C)CC(=O)N[C@@H](CCc3ccc(Cl)c(Cl)c3)C(=O)N2C1 [PP2188]			A (a compound having 10 or more and less than 20 is denoted as A)	AA (a compound having 20 or more is denoted as AA)			
	CCC[C@H]1C(=O)N[C@@H]([C@@H](C)CC)C(=O)N(C2CC2)CC(=O)N(C)[C@H]2C/C=C\CCN(C2=O)[C@@H](Cc2ccc(C)cc2)C(=O)N(C)CC(=O)N[C@@H](CCc2ccc(C3CC3)c(F)c2)C(=O)N2C[C@H](OCC)C[C@H]2C(=O)NC2(CC(C)(C)C2)C(=O)N(C)[C@@H](C2CCCC2)C(=O)N(C)[C@H](C(=O)N(C)C)CC(=O)N1C [PP2884]					A (a compound having 10 or more and less than 20 is denoted as A)	A (a compound having 10 or more and less than 20 is denoted as A)	0.0359 µM
0.0149 µM	CCO[C@@H]1C[C@H]2C(=O)NC3(CCC3)C(=O)N(C)[C@@H](C3CCCC3)C(=O)N(C)[C@H](C)CC(=O)N(C)[C@@H](CC)C(=O)N[C@@H]([C@@H](C)CC)C(=O)N(C)CC(=O)N(C)[C@H]3C/C=C\CCN(C3=O)[C@@H](Cc3ccc(C(F)(F)F)cc3)C(=O)N(C)CC(=O)N[C@@H](CCc3cc(F)c(C(F)(F)F)c(F)c3)C(=O)N2C1 [PP1095]					B (a compound having 3 or more and less than 10 is denoted as B)	B (a compound having 3 or more and less than 10 is denoted as B)	
0.647 µM	CC[C@H](C)[C@@H]1NC(=O)[C@H](CC(C)C)N(C)C(=O)C[C@@H](C(=O)N2CCOCC2)N(C)C(=O)[C@H](C2CCCC2)N(C)C(=O)C2(CCCC2)NC(=O)[C@@H]2CCCN2C(=O)[C@H](CCc2cc(F)c(C(F)(F)F)c(F)c2)NC(=O)CN(C)C(=O)[C@H](Cc2ccc(C(F)(F)F)cc2)N2CCCC[C@@H](C2=O)N(C)C(=O)[C@H](C)N(C)C1=O [PP0544]			B (a compound having 3 or more and less than 10 is denoted as B)	B (a compound having 3 or more and less than 10 is denoted as B)			
0.0071 µM	CCO[C@@H]1C[C@H]2C(=O)NC3(CCC3)C(=O)N(C)[C@@H](C3CCCC3)C(=O)N(C)[C@H](C(=O)N(C)C)CC(=O)N(C)[C@@H](Cc3cccc(F)c3)C(=O)N[C@@H]([C@@H](C)CC)C(=O)N(C)CC(=O)N(C)[C@H]3C/C=C\CCN(C3=O)[C@@H](Cc3ccc(C(F)(F)F)cc3)C(=O)N(C)CC(=O)N[C@@H](CCc3cc(F)c(C(F)(F)F)c(F)c3)C(=O)N2C1 [PP1126]					A (a compound having 10 or more and less than 20 is denoted as A)	A (a compound having 10 or more and less than 20 is denoted as A)	
0.0036 µM	CCC[C@H]1C(=O)N[C@@H]([C@@H](C)CC)C(=O)N(C)CC(=O)N(C)[C@H]2C/C=C\CCN(C2=O)[C@@H](Cc2ccc(C(F)(F)F)cc2)C(=O)N(C)CC(=O)N[C@@H](CCc2cc(F)c(C(F)(F)F)c(F)c2)C(=O)N2C[C@H](OCC)C[C@H]2C(=O)NC2(CC(F)(F)C2)C(=O)N(C)[C@@H](C2CCCC2)C(=O)N(C)[C@H](C(=O)N(C)CCC)CC(=O)N1C [PP1736]	A (a compound having 10 or more and less than 20 is denoted as A)	A (a compound having 10 or more and less than 20 is denoted as A)					
0.035 µM	CCCN1C(=O)CN(C)C(=O)[C@@H]2CCCN2C(=O)[C@H]([C@@H](C)CC)NC(=O)[C@H](CC(C)C)N(C)C(=O)C[C@@H](C(=O)N2CCOCC2)N(C)C(=O)[C@H](C2CCCC2)N(C)C(=O)C2(CCCC2)NC(=O)[C@@H]2CCCN2C(=O)[C@H](CCc2ccc(C(F)(F)F)c(Cl)c2)NC(=O)CN(C)C(=O)[C@@H]1Cc1ccc(C(F)(F)F)cc1 [PP0165] ([NMeL]IP[Sar][NPrPhe(4-CF3)][Sar][hPhe(3-Cl-4-CF3)]P[Ac5c][NMeGly(cPent)][NMeD]-Morpholide; lactam N-11)					B (a compound having 3 or more and less than 10 is denoted as B)	B (a compound having 3 or more and less than 10 is denoted as B)	
0.0392 µM	CCC[C@H]1C(=O)N[C@@H]([C@@H](C)CC)C(=O)N(C)CC(=O)N(C)[C@H]2C/C=C\CCN(C2=O)[C@@H](Cc2ccc(C)cc2)C(=O)N(C)CC(=O)N[C@@H](CCc2ccc(Cl)c(Cl)c2)C(=O)N2CCCCC[C@H]2C(=O)NC2(CC(C)(C)C2)C(=O)N(C)[C@@H](C(CC)CC)C(=O)N(C)[C@H](C(=O)N(C)C)CC(=O)N1C [PP2962]					A (a compound having 10 or more and less than 20 is denoted as A)	AA (a compound having 20 or more is denoted as AA)	
0.083 µM	CCCN1C(=O)C[C@@H](C(=O)N2CCOCC2)N(C)C(=O)[C@H](C2CCCC2)N(C)C(=O)C2(CCC2)NC(=O)[C@@H]2CCCN2C(=O)[C@H](CCc2ccc(C(F)(F)F)c(Cl)c2)NC(=O)CN(C)C(=O)[C@H](Cc2ccc(C(F)(F)F)cc2)N(CCC)C(=O)CN(C)C(=O)CN(C)C(=O)[C@H](C(C)C)NC(=O)[C@@H]1CC(C)C [PP1815] ([X35]V[Sar][Sar][NPrPhe(4-CF3)][Sar][hPhe(3-Cl-4-CF3)]P[Ac4c][NMeGly(cPent)][NMeD]-Morpholide; lactam N-11)	B (a compound having 3 or more and less than 10 is denoted as B)	B (a compound having 3 or more and less than 10 is denoted as B)					
0.0122 µM	C=CC[C@H]1C(=O)N[C@@H]([C@@H](C)CC)C(=O)N(C)CC(=O)N(C)[C@H]2C/C=C\CCN(C2=O)[C@@H](Cc2ccc(C(F)(F)F)cc2)C(=O)N(C)CC(=O)N[C@@H](CCc2cc(F)c(C(F)(F)F)c(F)c2)C(=O)N2C[C@H](OCC)C[C@H]2C(=O)NC2(CCC2)C(=O)N(C)[C@@H](C2CCCC2)C(=O)N(C)[C@H](C(=O)N(C)C)CC(=O)N1C [PP1114]					A (a compound having 10 or more and less than 20 is denoted as A)	A (a compound having 10 or more and less than 20 is denoted as A)	
0.0102 µM	CC[C@H](C)[C@@H]1NC(=O)[C@H](CC(C)C)N(C)C(=O)C[C@@H](C(=O)N(C)C)N(C)C(=O)[C@H](C2CCCC2)N(C)C(=O)C2(CCC2)NC(=O)[C@@H]2C[C@H](C)CN2C(=O)[C@H](CCc2cc(F)c(C(F)(F)F)c(F)c2)NC(=O)CN(C)C(=O)[C@H](Cc2ccc(C)cc2)N2CC/C=C\C[C@@H](C2=O)N(C)C(=O)CN(C)C1=O [PP1864]	B (a compound having 3 or more and less than 10 is denoted as B)	A (a compound having 10 or more and less than 20 is denoted as A)					
0.0017 µM	CCCN1C(=O)[C@@H]2CCN2C(=O)CN(C)C(=O)[C@H]([C@@H](C)CC)NC(=O)[C@H](CC(C)C)N(C)C(=O)C[C@@H](C(=O)N(C)C)N(C)C(=O)[C@H](C2CCCC2)N(C)C(=O)C2(CCC2)NC(=O)[C@@H]2C[C@@H](OCC)CN2C(=O)[C@H](CCc2ccc(C(F)(F)F)c(Cl)c2)NC(=O)CN(C)C(=O)[C@@H]1Cc1ccc(C(F)(F)F)cc1 [PP0445] ([NMeL]I[Sar][Aze][NPrPhe(4-CF3)][Sar][hPhe(3-Cl-4-CF3)][Hyp](Et)[Ac4c][NMeGly(cPent)][NMeD]-NMe2; lactam N-11)			C (A compound having a KD ratio of 0.1 or more and less than 3 is denoted as C)	C (A compound having a KD ratio of 0.1 or more and less than 3 is denoted as C)			
0.0025 µM	CC[C@H](C)[C@@H]1NC(=O)[C@H](CC(F)(F)F)N(C)C(=O)C[C@@H](C(=O)N2CCOCC2)N(C)C(=O)[C@H](C2CCCC2)N(C)C(=O)C2(CCCC2)NC(=O)[C@@H]2CCCN2C(=O)[C@H](CCc2cc(F)c(C(F)(F)F)c(F)c2)NC(=O)CN(C)C(=O)[C@H](Cc2ccc(C(F)(F)F)cc2)N2CCCC[C@@H](C2=O)N(C)C(=O)CN(C)C1=O [PP0594]			B (a compound having 3 or more and less than 10 is denoted as B)	C (A compound having a KD ratio of 0.1 or more and less than 3 is denoted as C)			
